Data taken from patent publication US9586951B2 (FUJIFILM Corporation, priority 2013, dated 2017).
pIC50: −log10 of the molar value.

Assays:
ATM = molecular target: T1, ATM (Homo sapiens, UniProt Q13315); assay: ATM inhibition test (phosphorylation of Chk2 generated by ionizing radiation, AlphaScreen SureFire); assay type: cell-based; conditions: phosphorylated Chk2 in NCI-H460 cells, ionizing radiation 8Gy, 1 hour after test compound treatment; read-out: ATM inhibitory activity
T1 construct: detecting phosphorylation of Chk2 in a human non-small cell lung cancer cell line NCI-H460 (ATCC company); host or cells: NCI-H460 human non-small cell lung cancer cells
Outline: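 NCI-H460 cells treated with compound for 1 hour, then irradiated with 8Gy and incubated 1 hour at 37° C. Phospho-Chk2 measured by AlphaScreen SureFire. Inhibition ratio calculated relative to untreated irradiated and non-irradiated wells.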

[1] = tested on: human non-small cell lung cancer cell line NCI-H460; assay: Cell proliferation inhibition test by sensitivity-enhancing to ionizing radiation (Cell Titer Glo); assay type: cell-based; conditions: concentration in which SER became 2, NCI-H460 cells, ionizing radiation 2 Gy, cultured 120 hour
Outline: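 Radiosensitisation measured as SER, a ratio of Cell Titer Glo luminescence in irradiated vs unirradiated plates relative to DMSO; SER2, the concentration yielding SER 2, came from sigmoidal regression. Compound (0.1% DMSO) was given 24 h post-seeding, 2 Gy applied 30 min later, then 120 hour culture at 37° C.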

T1 sequence (Q13315 whole entry): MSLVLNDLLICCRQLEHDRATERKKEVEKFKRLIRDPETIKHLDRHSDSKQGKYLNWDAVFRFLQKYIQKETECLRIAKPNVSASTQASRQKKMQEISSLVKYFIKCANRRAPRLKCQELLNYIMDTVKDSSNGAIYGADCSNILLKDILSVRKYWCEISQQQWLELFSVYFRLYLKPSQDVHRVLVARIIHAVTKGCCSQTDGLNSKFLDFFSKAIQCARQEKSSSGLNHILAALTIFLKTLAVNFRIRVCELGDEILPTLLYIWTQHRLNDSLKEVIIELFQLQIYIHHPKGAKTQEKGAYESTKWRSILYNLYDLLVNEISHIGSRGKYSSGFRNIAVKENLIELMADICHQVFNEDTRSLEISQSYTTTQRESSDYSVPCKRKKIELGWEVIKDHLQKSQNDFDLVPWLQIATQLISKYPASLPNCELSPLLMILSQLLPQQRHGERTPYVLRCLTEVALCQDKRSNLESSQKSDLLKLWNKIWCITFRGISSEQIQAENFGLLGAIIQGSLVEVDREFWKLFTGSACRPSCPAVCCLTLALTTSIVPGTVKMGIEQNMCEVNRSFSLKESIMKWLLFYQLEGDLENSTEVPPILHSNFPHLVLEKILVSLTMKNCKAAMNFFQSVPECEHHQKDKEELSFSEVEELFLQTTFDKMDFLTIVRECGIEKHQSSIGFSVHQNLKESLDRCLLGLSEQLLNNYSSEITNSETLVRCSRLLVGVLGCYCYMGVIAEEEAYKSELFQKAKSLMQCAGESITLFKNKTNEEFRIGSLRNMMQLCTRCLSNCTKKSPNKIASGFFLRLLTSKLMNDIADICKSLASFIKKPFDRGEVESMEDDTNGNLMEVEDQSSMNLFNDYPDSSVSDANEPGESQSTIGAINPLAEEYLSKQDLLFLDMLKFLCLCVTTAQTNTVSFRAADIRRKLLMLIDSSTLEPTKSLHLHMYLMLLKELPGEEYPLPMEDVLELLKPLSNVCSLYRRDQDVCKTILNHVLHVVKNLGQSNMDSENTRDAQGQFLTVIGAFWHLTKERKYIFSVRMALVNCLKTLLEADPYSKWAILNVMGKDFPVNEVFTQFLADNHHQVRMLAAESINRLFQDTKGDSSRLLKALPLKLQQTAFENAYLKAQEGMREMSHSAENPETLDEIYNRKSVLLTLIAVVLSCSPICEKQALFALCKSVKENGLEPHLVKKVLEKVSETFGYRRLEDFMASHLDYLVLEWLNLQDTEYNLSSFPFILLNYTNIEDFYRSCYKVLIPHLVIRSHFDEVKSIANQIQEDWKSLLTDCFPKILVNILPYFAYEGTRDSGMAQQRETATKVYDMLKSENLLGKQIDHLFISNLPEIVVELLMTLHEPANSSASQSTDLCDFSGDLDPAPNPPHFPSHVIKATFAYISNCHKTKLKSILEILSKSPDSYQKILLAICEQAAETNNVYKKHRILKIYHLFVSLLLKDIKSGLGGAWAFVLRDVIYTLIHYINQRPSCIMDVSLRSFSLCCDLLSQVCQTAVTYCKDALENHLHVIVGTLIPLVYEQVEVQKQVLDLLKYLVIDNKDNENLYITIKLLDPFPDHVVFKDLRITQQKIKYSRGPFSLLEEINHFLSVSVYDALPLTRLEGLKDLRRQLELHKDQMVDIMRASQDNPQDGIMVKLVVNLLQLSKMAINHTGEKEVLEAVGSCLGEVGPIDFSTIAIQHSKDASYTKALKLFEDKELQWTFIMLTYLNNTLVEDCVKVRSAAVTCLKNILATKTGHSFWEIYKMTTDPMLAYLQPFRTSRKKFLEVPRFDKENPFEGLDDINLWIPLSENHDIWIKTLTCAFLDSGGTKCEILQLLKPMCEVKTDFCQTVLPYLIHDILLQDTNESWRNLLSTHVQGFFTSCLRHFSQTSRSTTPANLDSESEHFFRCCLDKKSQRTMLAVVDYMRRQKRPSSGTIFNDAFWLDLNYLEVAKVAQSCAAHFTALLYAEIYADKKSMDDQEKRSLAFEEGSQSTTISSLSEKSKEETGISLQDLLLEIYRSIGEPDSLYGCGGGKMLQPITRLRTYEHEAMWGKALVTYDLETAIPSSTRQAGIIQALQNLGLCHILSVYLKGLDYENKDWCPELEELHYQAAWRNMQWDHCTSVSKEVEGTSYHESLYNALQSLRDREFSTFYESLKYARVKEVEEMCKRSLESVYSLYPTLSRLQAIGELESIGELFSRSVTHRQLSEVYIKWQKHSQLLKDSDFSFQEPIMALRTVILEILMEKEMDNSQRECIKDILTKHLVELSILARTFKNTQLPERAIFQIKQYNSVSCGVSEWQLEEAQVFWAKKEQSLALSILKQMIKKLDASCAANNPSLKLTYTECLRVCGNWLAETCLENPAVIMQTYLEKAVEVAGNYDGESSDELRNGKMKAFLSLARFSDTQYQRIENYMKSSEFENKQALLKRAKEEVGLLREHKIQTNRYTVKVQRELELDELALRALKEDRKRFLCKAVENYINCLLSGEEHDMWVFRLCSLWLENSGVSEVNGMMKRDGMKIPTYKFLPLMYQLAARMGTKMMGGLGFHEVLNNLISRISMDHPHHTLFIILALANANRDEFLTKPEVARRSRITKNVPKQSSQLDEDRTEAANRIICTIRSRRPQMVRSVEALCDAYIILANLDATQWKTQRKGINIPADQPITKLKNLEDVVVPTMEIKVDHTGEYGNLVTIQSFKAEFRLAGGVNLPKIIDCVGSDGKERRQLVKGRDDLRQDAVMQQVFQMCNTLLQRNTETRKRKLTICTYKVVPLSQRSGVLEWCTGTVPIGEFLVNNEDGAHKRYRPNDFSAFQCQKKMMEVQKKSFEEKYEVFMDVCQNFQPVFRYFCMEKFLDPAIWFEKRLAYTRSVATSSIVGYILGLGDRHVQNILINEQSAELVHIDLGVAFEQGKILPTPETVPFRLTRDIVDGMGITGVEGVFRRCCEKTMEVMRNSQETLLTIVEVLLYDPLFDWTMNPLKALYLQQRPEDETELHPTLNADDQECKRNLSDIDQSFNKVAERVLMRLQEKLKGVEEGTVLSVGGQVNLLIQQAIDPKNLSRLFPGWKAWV

Compound	pIC50 (ATM)	SER2 (concentration at which the radiation sensitivity-enhancement ratio reaches 2) ([1]; Homo sapiens, NCI-H460, 120 h)	SER2 (concentration at which the radiation sensitivity-enhancement ratio reaches 2) [1]
COC[C@H](CN1CCC(C(F)(F)F)CC1)Nc1ccc2c(c1)Sc1cccc(-c3cc(N4CCOCC4)cc(=O)[nH]3)c1S2 [Example 1-46-8, (S)-6-(7-((1-Methoxy-3-(4-(trifluoromethyl)piperidin-1-yl)propan-2-yl)amino)thianthren-1-yl)-4-morpholino pyridin-2(1H)-one]	> 7.00	100 to 500 nM	
Cc1ccc(C2(Nc3ccc4c(c3)Sc3cccc(-c5cc(N6CCOCC6)cc(=O)[nH]5)c3S4)COC2)nc1 [Example 1-50-4, 6-(7-((3-(5-Methylpyridin-2-yl)oxetan-3-yl)amino)thianthren-1-yl)-4-morpholino pyridin-2(1H)-one]	> 7.00	100 to 500 nM	
CC(Nc1ccc2c(c1)Sc1cccc(-c3cc(N4CCOCC4)cc(=O)[nH]3)c1S2)c1ncc(CO)cn1 (single isomer, unassigned) [Example 1-12-142-1, 6-(7-((1-(5-(hydroxymethyl)pyrimidin-2-yl)ethyl)amino)thianthren-1-yl)-4-morpholinopyridin-2(1H)-one]	> 7.00	100 to 500 nM	
Cc1ccnc(C(C)Nc2ccc3c(c2)Sc2cccc(-c4cc(N5CCOCC5)cc(=O)[nH]4)c2S3)c1 (single isomer, unassigned) [Example 1-12-135-1, 6-(7-((1-(4-methylpyridin-2-yl)ethyl)amino)thianthren-1-yl)-4-morpholinopyridin-2(1H)-one]	> 7.00	< 100 nM	
O=c1cc(N2CCOCC2)cc(-c2cccc3c2Sc2ccc(NCc4cccc(Cl)n4)cc2S3)[nH]1 [Example 1-12-6, 6-(7-(((6-Chloropyridin-2-yl)methyl)amino)thianthren-1-yl)-4-morpholino pyridin-2 (1H)-one]	> 7.00	100 to 500 nM	
O=c1cc(N2CCOCC2)cc(-c2cccc3c2Oc2ccc(NCc4ccc(F)nc4)cc2S3)[nH]1 [Example 4-8-24, 6-(8-(((6-Fluoropyridin-3-yl)methyl)amino)phenoxathiin-4-yl)-4-morpholino pyridin-2(1H)-one]	> 7.00	100 to 500 nM	
COCC(CN1CCOCC1)Nc1ccc2c(c1)Sc1cccc(-c3cc(N4CCOCC4)cc(=O)[nH]3)c1S2 (racemic) [Example 1-17-1-1, 6-(7-((1-Methoxy-3-morpholinopropan-2-yl)amino)thianthren-1-yl)-4-morpholinopyridin-2(1H)-one]	> 7.00	< 100 nM	
COc1cnc(CNc2ccc3c(c2)Cc2cccc(-c4cc(N5CCOCC5)cc(=O)[nH]4)c2O3)cn1 [Example 2-2-36, 6-(7-(((5-Methoxypyrazin-2-yl)methyl)amino)-9H-xanthen-4-yl)-4-morpholino pyridin-2(1H)-one]	6.30 to 7.00	500 to 2000 nM	
CC(CN1CCN(C)CC1)Nc1ccc2c(c1)Sc1cccc(-c3cc(N4CCOCC4)cc(=O)[nH]3)c1S2 (single isomer, unassigned) [Example 1-13-3-2, 6-(7-((1-(4-methylpiperazin-1-yl)propan-2-yl)amino)thianthren-1-yl)-4-morpholinopyridin-2(1H)-one]	> 7.00	100 to 500 nM	
O=c1cc(N2CCOCC2)cc(-c2cccc3c2Oc2ccc(NCc4ccc(Cl)nc4)cc2C3)[nH]1 [Example 2-2-3]	6.30 to 7.00	100 to 500 nM	
CC(Nc1ccc2c(c1)Cc1cccc(-c3cc(N4CCOCC4)cc(=O)[nH]3)c1O2)c1cccc(F)n1 (single isomer, unassigned) [Example 2-14-87-1, 6-(7-((1-(6-fluoropyridin-2-yl)ethyl)amino)-9H-xanthen-4-yl)-4-morpholinopyridin-2(1H)-one]	> 7.00	100 to 500 nM	
Cc1ccnc(CNc2ccc3c(c2)Cc2cccc(-c4cc(N5CCOCC5)cc(=O)[nH]4)c2O3)c1 [Example 2-2-40, 6-(7-(((4-Methylpyridin-2-yl)methyl)amino)-9H-xanthen-4-yl)-4-morpholino pyridin-2(1H)-one]	> 7.00	100 to 500 nM	
Cc1cccc(C(C)Nc2ccc3c(c2)Sc2cccc(-c4cc(N5CCOCC5)cc(=O)[nH]4)c2S3)n1 (single isomer, unassigned) [Example 1-12-136-1, 6-(7-((1-(6-methylpyridin-2-yl)ethyl)amino)thianthren-1-yl)-4-morpholinopyridin-2(1H)-one]	> 7.00	< 100 nM	
Cc1ccc(C(CCCN(C)C)Nc2ccc3c(c2)Sc2cccc(-c4cc(N5CCOCC5)cc(=O)[nH]4)c2S3)nc1 (single isomer, unassigned) [Example 1-51-3, 6-(7-((4-(Dimethylamino)-1-(5-methylpyridin-2-yl)butyl)amino)thianthren-1-yl)-4-morpholino pyridin-2(1H)-one]	> 7.00	100 to 500 nM	
O=c1cc(N2CCOCC2)cc(-c2cccc3c2Sc2ccc(NC4CCCN(Cc5cccnc5)C4)cc2S3)[nH]1 (stereo not shown) [Example 1-24-2, 4-Morpholine-6-(7-((1-(pyridin-3-ylmethyl)piperidin-3-yl)amino)thianthren-1-yl)pyridin-2 (1H)-one]	> 7.00	100 to 500 nM	
Cc1ccc(C(Nc2ccc3c(c2)Sc2cccc(-c4cc(N5CCOCC5)cc(=O)[nH]4)c2S3)C(C)C)nc1 (stereo not shown) [Example 1-12-121, 6-(7-((2-Methyl-1-(5-methylpyridin-2-yl)propyl)amino)thianthren-1-yl)-4-morpholino pyridin-2(1H)-one]	> 7.00	100 to 500 nM	
CC(Nc1ccc2c(c1)Sc1cccc(-c3cc(N4CCOCC4)cc(=O)[nH]3)c1S2)c1cc(C#N)ncn1 (single isomer, unassigned) [Example 1-12-146-1, 6-(1-((6-(4-morpholino-6-oxo-1,6-dihydropyridin-2-yl)thianthren-2-yl)amino)ethyl)pyrimidine-4-carbonitrile]	> 7.00	100 to 500 nM	

Second part, led by results:

pIC50 (ATM)	Compound	SER2 (concentration at which the radiation sensitivity-enhancement ratio reaches 2) ([1]; Homo sapiens, NCI-H460, 120 h)	SER2 (concentration at which the radiation sensitivity-enhancement ratio reaches 2) [1]
> 7.00	O=c1cc(N2CCOCC2)cc(-c2cccc3c2Oc2ccc(NCc4cccs4)cc2C3)[nH]1 [Example 2-13-6, 4-Morpholino-6-(7-((thiophen-2-ylmethyl)amino)-9H-xanthen-4-yl) pyridin-2(1H)-one]	500 to 2000 nM	
> 7.00	Cc1cncc(C(C)Nc2ccc3c(c2)Sc2cccc(-c4cc(N5CCOCC5)cc(=O)[nH]4)c2S3)c1 (stereo not shown) [Example 1-12-50, 6-(7-((1-(5-Methylpyridin-3-yl)ethyl)amino)thianthren-1-yl)-4-morpholino pyridin-2 (1H)-one]	100 to 500 nM	
> 7.00	CN1CCC(Nc2ccc3c(c2)Sc2cccc(-c4cc(N5CCOCC5)cc(=O)[nH]4)c2S3)CC1 [Example 1-44-5, 6-(7-((1-Methylpiperidin-4-yl)amino)thianthren-1-yl)-4-morpholino pyridin-2(1H)-one]	500 to 2000 nM	
> 7.00	O=c1cc(N2CCOCC2)cc(-c2cccc3c2Oc2ccc(NCc4ccc(Cl)nc4)cc2S3)[nH]1 [Example 4-8-25, 6-(8-(((6-Chloropyridin-3-yl)methyl)amino)phenoxathiin-4-yl)-4-morpholino pyridin-2(1H)-one]	100 to 500 nM	
> 7.00	COC[C@H](CN1CCO[C@@H](C)C1)Nc1ccc2c(c1)Sc1cccc(-c3cc(N4CCOCC4)cc(=O)[nH]3)c1S2 [Example 1-46-6, 6-(7-(((S)-1-Methoxy-3-((S)-2-methylmorpholino)propan-2-yl)amino)thianthren-1-yl)-4-morpholino pyridin-2(1H)-one]	< 100 nM	
> 7.00	COc1ccnc(C(C)Nc2ccc3c(c2)Cc2cccc(-c4cc(N5CCOCC5)cc(=O)[nH]4)c2O3)c1 (stereo not shown) [Example 2-14-20, 6-(7-((1-(4-Methoxypyridin-2-yl)ethyl)amino)-9H-xanthen-4-yl)-4-morpholino pyridin-2(1H)-one]	< 100 nM	
> 7.00	O=c1cc(N2CCOCC2)cc(-c2cccc3c2Sc2ccc(NCc4cc(C5CC5)ccn4)cc2S3)[nH]1 [Example 1-12-14, 6-(7-(((4-Cyclopropylpyridin-2-yl)methyl)amino)thianthren-1-yl)-4-morpholino pyridin-2(1H)-one]	100 to 500 nM	
> 7.00	CC(CN1CCN(C)CC1)Nc1ccc2c(c1)Sc1cccc(-c3cc(N4CCOCC4)cc(=O)[nH]3)c1S2 (racemic) [Example 1-13-3-1, 6-(7-((1-(4-Methylpiperazin-1-yl)propan-2-yl)amino)thianthren-1-yl)-4-morpholinopyridin-2(1H)-one]	100 to 500 nM	
> 7.00	Cc1cnc(C(C)Nc2ccc3c(c2)Sc2cccc(-c4cc(N5CCOCC5)cc(=O)[nH]4)c2S3)nc1 (single isomer, unassigned) [Example 1-12-139-2, 6-(7-((1-(5-methylpyrimidin-2-yl)ethyl)amino)thianthren-1-yl)-4-morpholinopyridin-2(1H)-one]		100 to 500 nM
